Reference: patent US11987588B2, “Modulators of the beta-3 adrenergic receptor useful for the treatment or prevention of heart failure and disorders related thereto” (Arena Pharmaceuticals, Inc., priority 2017, dated 2024)

The compounds below were run against Beta-3 Adrenergic Receptor (Homo sapiens (Human), UniProt P13945) (assay: Homogeneous Time-Resolved Fluorescence (HTRF) cAMP antagonist assay, IC50 determination). Details: CHO-K1 cells stably expressing recombinant receptor, isoproterenol at EC90.
Assay type: cell-based
Summary of the method: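 Antagonist mode: isoproterenol at its predetermined EC90 added after compound to recombinant CHO-K1 cells in IBMX-containing PBS, 1 h, room temperature. Compounds tested as 5-fold, 10-point dilutions, top final typically 10 or 100 μM. HTRF signal converted to cAMP via standard curve, giving IC50.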

Chain of Beta-3 Adrenergic Receptor (P13945 whole entry, species assumed): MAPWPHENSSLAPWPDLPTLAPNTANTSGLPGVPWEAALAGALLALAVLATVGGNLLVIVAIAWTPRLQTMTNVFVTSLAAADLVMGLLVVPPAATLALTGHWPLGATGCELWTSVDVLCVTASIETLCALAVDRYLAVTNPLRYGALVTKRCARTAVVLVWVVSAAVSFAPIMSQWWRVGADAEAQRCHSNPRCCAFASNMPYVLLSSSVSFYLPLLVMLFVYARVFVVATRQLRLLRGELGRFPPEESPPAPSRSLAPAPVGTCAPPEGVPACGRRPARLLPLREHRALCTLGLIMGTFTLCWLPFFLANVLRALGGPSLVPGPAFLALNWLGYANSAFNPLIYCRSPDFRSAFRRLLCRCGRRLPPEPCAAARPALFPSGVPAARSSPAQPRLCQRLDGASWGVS

Compound	IC50 [µM]
CNS(=O)(=O)c1cccc(OC[C@@H](O)CNC2COC3(CCN(S(=O)(=O)c4cn(C)cn4)CC3)C2)c1 (stereo partly drawn) [Compound 194, 3-((2S)-2-hydroxy-3-(8-(1-methyl-1H-imidazol-4-ylsulfonyl)-1-oxa-8-azaspiro[4.5]decan-3-ylamino)propoxy)-N-methylbenzenesulfonamide]	0.0976
CNS(=O)(=O)c1cccc(OC[C@@H](O)CNC2COC3(CCN(S(=O)(=O)c4ccc(OC)c(F)c4)CC3)C2)c1 (stereo partly drawn) [Compound 195, 3-((2S)-3-(8-(3-fluoro-4-methoxyphenylsulfonyl)-1-oxa-8-azaspiro[4.5]decan-3-ylamino)-2-hydroxypropoxy)-N-methylbenzenesulfonamide]	0.0234
CNS(=O)(=O)c1cccc(OC[C@@H](O)CNC2COC3(CCN(S(=O)(=O)c4ccsc4)CC3)C2)c1 (stereo partly drawn) [Compound 196, 3-((2S)-2-hydroxy-3-(8-(thiophen-3-ylsulfonyl)-1-oxa-8-azaspiro[4.5]decan-3-ylamino)propoxy)-N-methylbenzenesulfonamide]	0.0397
CNS(=O)(=O)c1cccc(OC[C@@H](O)CNC2COC3(CCN(S(=O)(=O)c4c(Cl)ccc5nsnc45)CC3)C2)c1 (stereo partly drawn) [Compound 197, 3-((2S)-3-(8-(5-chlorobenzo[c][1,2,5]thiadiazol-4-ylsulfonyl)-1-oxa-8-azaspiro[4.5]decan-3-ylamino)-2-hydroxypropoxy)-N-methylbenzenesulfonamide]	0.0128
CNS(=O)(=O)c1cccc(OC[C@@H](O)CNC2COC3(CCN(S(=O)(=O)c4ccc(C)c(C#N)c4)CC3)C2)c1 (stereo partly drawn) [Compound 198, 3-((2S)-3-(8-(3-cyano-4-methylphenylsulfonyl)-1-oxa-8-azaspiro[4.5]decan-3-ylamino)-2-hydroxypropoxy)-N-methylbenzenesulfonamide]	0.00865
CNS(=O)(=O)c1cccc(OC[C@@H](O)CNC2COC3(CCN(S(=O)(=O)c4cccc(F)c4Cl)CC3)C2)c1 (stereo partly drawn) [Compound 199, 3-((2S)-3-(8-(2-chloro-3-fluorophenylsulfonyl)-1-oxa-8-azaspiro[4.5]decan-3-ylamino)-2-hydroxypropoxy)-N-methylbenzenesulfonamide]	0.015
CNS(=O)(=O)c1cccc(OC[C@@H](O)CNC2COC3(CCN(S(=O)(=O)c4ccc(F)cc4Cl)CC3)C2)c1 (stereo partly drawn) [Compound 200, 3-((2S)-3-(8-(2-chloro-4-fluorophenylsulfonyl)-1-oxa-8-azaspiro[4.5]decan-3-ylamino)-2-hydroxypropoxy)-N-methylbenzenesulfonamide]	0.0222
CNS(=O)(=O)c1cccc(OC[C@@H](O)CNC2COC3(CCN(S(=O)(=O)c4cccc(F)c4F)CC3)C2)c1 (stereo partly drawn) [Compound 201, 3-((2S)-3-(8-(2,3-difluorophenylsulfonyl)-1-oxa-8-azaspiro[4.5]decan-3-ylamino)-2-hydroxypropoxy)-N-methylbenzenesulfonamide]	0.0171
CNS(=O)(=O)c1cccc(OC[C@@H](O)CNC2COC3(CCN(S(=O)(=O)c4cc(F)ccc4Cl)CC3)C2)c1 (stereo partly drawn) [Compound 202, 3-((2S)-3-(8-(2-chloro-5-fluorophenylsulfonyl)-1-oxa-8-azaspiro[4.5]decan-3-ylamino)-2-hydroxypropoxy)-N-methylbenzenesulfonamide]	0.0108
CNS(=O)(=O)c1cccc(OC[C@@H](O)CNC2COC3(CCN(S(=O)(=O)c4cc(S(C)(=O)=O)ccc4Cl)CC3)C2)c1 (stereo partly drawn) [Compound 203, 3-((2S)-3-(8-(2-chloro-5-(methylsulfonyl)phenylsulfonyl)-1-oxa-8-azaspiro[4.5]decan-3-ylamino)-2-hydroxypropoxy)-N-methylbenzenesulfonamide]	0.0149
CNS(=O)(=O)c1cccc(OC[C@@H](O)CNC2COC3(CCN(S(=O)(=O)c4cc(F)ccc4C)CC3)C2)c1 (stereo partly drawn) [Compound 204, 3-((2S)-3-(8-(5-fluoro-2-methylphenylsulfonyl)-1-oxa-8-azaspiro[4.5]decan-3-ylamino)-2-hydroxypropoxy)-N-methylbenzenesulfonamide]	0.0121
CNS(=O)(=O)c1cccc(OC[C@@H](O)CNC2COC3(CCN(S(=O)(=O)c4cc(F)ccc4F)CC3)C2)c1 (stereo partly drawn) [Compound 205, 3-((2S)-3-(8-(2,5-difluorophenylsulfonyl)-1-oxa-8-azaspiro[4.5]decan-3-ylamino)-2-hydroxypropoxy)-N-methylbenzenesulfonamide]	0.014
CNS(=O)(=O)c1cccc(OC[C@@H](O)CNC2COC3(CCN(S(=O)(=O)c4ccc(Cl)c(OC)c4)CC3)C2)c1 (stereo partly drawn) [Compound 206, 3-((2S)-3-(8-(4-chloro-3-methoxyphenylsulfonyl)-1-oxa-8-azaspiro[4.5]decan-3-ylamino)-2-hydroxypropoxy)-N-methylbenzenesulfonamide]	0.00962
CNS(=O)(=O)c1cccc(OC[C@@H](O)CNC2COC3(CCN(S(=O)(=O)c4ccc(OC)c(Cl)c4)CC3)C2)c1 (stereo partly drawn) [Compound 207, 3-((2S)-3-(8-(3-chloro-4-methoxyphenylsulfonyl)-1-oxa-8-azaspiro[4.5]decan-3-ylamino)-2-hydroxypropoxy)-N-methylbenzenesulfonamide]	0.00879
CNS(=O)(=O)c1cccc(OC[C@@H](O)CNC2COC3(CCN(S(=O)(=O)c4ccc(-c5cc(C(F)(F)F)on5)s4)CC3)C2)c1 (stereo partly drawn) [Compound 208, 3-((2S)-2-hydroxy-3-(8-(5-(5-(trifluoromethyl)isoxazol-3-yl)thiophen-2-ylsulfonyl)-1-oxa-8-azaspiro[4.5]decan-3-ylamino)propoxy)-N-methylbenzenesulfonamide]	0.0646
CCNS(=O)(=O)c1cccc(OC[C@@H](O)CNC2COC3(CCN(S(=O)(=O)c4cccc(-c5cnn(CC)c5)c4)CC3)C2)c1 (stereo partly drawn) [Compound 209, N-ethyl-3-((2S)-3-(8-(3-(1-ethyl-1H-pyrazol-4-yl)phenylsulfonyl)-1-oxa-8-azaspiro[4.5]decan-3-ylamino)-2-hydroxypropoxy)benzenesulfonamide]	0.041
CCNS(=O)(=O)c1cccc(OC[C@@H](O)CNC2COC3(CCN(S(=O)(=O)c4cccc(-c5ccc(CN)cc5)c4)CC3)C2)c1 (stereo partly drawn) [Compound 210, 3-((2S)-3-(8-(4′-(aminomethyl)biphenyl-3-ylsulfonyl)-1-oxa-8-azaspiro[4.5]decan-3-ylamino)-2-hydroxypropoxy)-N-ethylbenzenesulfonamide]	0.0204
CCNS(=O)(=O)c1cccc(OC[C@@H](O)CNC2COC3(CCN(S(=O)(=O)c4cccc(-c5ccc(S(N)(=O)=O)cc5)c4)CC3)C2)c1 (stereo partly drawn) [Compound 211, 3′-(3-((S)-3-(3-(N-ethylsulfamoyl)phenoxy)-2-hydroxypropylamino)-1-oxa-8-azaspiro[4.5]decan-8-ylsulfonyl)biphenyl-4-sulfonamide]	0.0165
CCNS(=O)(=O)c1cccc(OC[C@@H](O)CNC2COC3(CCN(S(=O)(=O)c4cccc(-c5ccc(N)nc5)c4)CC3)C2)c1 (stereo partly drawn) [Compound 212, 3-((2S)-3-(8-(3-(6-aminopyridin-3-yl)phenylsulfonyl)-1-oxa-8-azaspiro[4.5]decan-3-ylamino)-2-hydroxypropoxy)-N-ethylbenzenesulfonamide]	0.0136
CCNS(=O)(=O)c1cccc(OC[C@@H](O)CNC2COC3(CCN(S(=O)(=O)c4cccc(-c5ccc(OCC#N)cc5)c4)CC3)C2)c1 (stereo partly drawn) [Compound 213, 3-((2S)-3-(8-(4′-(cyanomethoxy)biphenyl-3-ylsulfonyl)-1-oxa-8-azaspiro[4.5]decan-3-ylamino)-2-hydroxypropoxy)-N-ethylbenzenesulfonamide]	0.0491
CCNS(=O)(=O)c1cccc(OC[C@@H](O)CNC2COC3(CCN(S(=O)(=O)c4cccc(-c5ccc(CC#N)cc5)c4)CC3)C2)c1 (stereo partly drawn) [Compound 214, 3-((2S)-3-(8-(4′-(cyanomethyl)biphenyl-3-ylsulfonyl)-1-oxa-8-azaspiro[4.5]decan-3-ylamino)-2-hydroxypropoxy)-N-ethylbenzenesulfonamide]	0.0314
CNS(=O)(=O)c1cccc(OC[C@@H](O)CN[C@H]2COC3(CCN(S(=O)(=O)c4cccc(-c5cnn(C)c5)c4)CC3)C2)c1 [Compound 215, 3-((S)-2-hydroxy-3-((R)-8-(3-(1-methyl-1H-pyrazol-4-yl)phenylsulfonyl)-1-oxa-8-azaspiro[4.5]decan-3-ylamino)propoxy)-N-methylbenzenesulfonamide]	0.00741
CNS(=O)(=O)c1cccc(OC[C@@H](O)CN[C@@H]2COC3(CCN(S(=O)(=O)c4cccc(-c5cnn(C)c5)c4)CC3)C2)c1 [Compound 216, 3-((S)-2-hydroxy-3-((S)-8-(3-(1-methyl-1H-pyrazol-4-yl)phenylsulfonyl)-1-oxa-8-azaspiro[4.5]decan-3-ylamino)propoxy)-N-methylbenzenesulfonamide]	0.0577
CNS(=O)(=O)c1cccc(OC[C@@H](O)CNC2COC3(CCN(S(=O)(=O)c4cc(C#N)ccc4C)CC3)C2)c1 (stereo partly drawn) [Compound 217, 3-((2S)-3-(8-(5-cyano-2-methylphenylsulfonyl)-1-oxa-8-azaspiro[4.5]decan-3-ylamino)-2-hydroxypropoxy)-N-methylbenzenesulfonamide]	0.0351
CNS(=O)(=O)c1cccc(OC[C@@H](O)CNC2COC3(CCN(S(=O)(=O)c4ccc(C)c(Br)c4)CC3)C2)c1 (stereo partly drawn) [Compound 218, 3-((2S)-3-(8-(3-bromo-4-methylphenylsulfonyl)-1-oxa-8-azaspiro[4.5]decan-3-ylamino)-2-hydroxypropoxy)-N-methylbenzenesulfonamide]	0.0393
CNS(=O)(=O)c1cccc(OC[C@@H](O)CNC2COC3(CCN(S(=O)(=O)c4cc(C)cc(Br)c4)CC3)C2)c1 (stereo partly drawn) [Compound 219, 3-((2S)-3-(8-(3-bromo-5-methylphenylsulfonyl)-1-oxa-8-azaspiro[4.5]decan-3-ylamino)-2-hydroxypropoxy)-N-methylbenzenesulfonamide]	0.0253
CNS(=O)(=O)c1cccc(OC[C@@H](O)CNC2COC3(CCN(S(=O)(=O)c4cc(Br)ccc4OC)CC3)C2)c1 (stereo partly drawn) [Compound 220, 3-((2S)-3-(8-(5-bromo-2-methoxyphenylsulfonyl)-1-oxa-8-azaspiro[4.5]decan-3-ylamino)-2-hydroxypropoxy)-N-methylbenzenesulfonamide]	0.0191
